Consider eight compounds from PubChem BioAssay AID252 (DTP/NCI, 2004).

The test system of the assay is BDF1 mice, intracerebral L1210 leukemia, survival T/C. The assay can be described thus: NCI In Vivo Anticancer Drug Screen. Data for tumor model L1210 Leukemia (intracerebral) in B6D2F1 (BDF1) mice. To be noted: higher = longer survival. In short, it runs like this: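 Antitumour effect is judged in mice with transplanted tumour by comparing survival of treated (T) against vehicle-dosed (C) groups as T/C.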

Setting [1] is: endpoint: mean survival time, dose: 37.5 mg/kg/injection, schedule: Q01DX001 (ip), vehicle: carboxymethylcellulose (CMC).
Setting [2] is: endpoint: mean survival time, dose: 60.0 mg/kg/injection, schedule: Q01DX001 (ip), vehicle: carboxymethylcellulose (CMC).

“And” between values parts separate entries of the source, which are not always exact repeats. Equal values may be shown once. Toxic doses and inconclusive results are not listed.

For `O=NN(CCCl)C(=O)NC1CCCCC1`, the T/C is 101 % of control (endpoint: mean survival time, dose: 1.0 mg/kg/injection, schedule: Q01DX001 (ip), vehicle: saline); 91 % of control (endpoint: mean survival time, dose: 1.0 mg/kg/injection, schedule: Q01DX001 (oral), vehicle: saline); 103 % of control and 116 % of control (endpoint: mean survival time, dose: 1.0 mg/kg/injection, schedule: Q01DX Z (ip), vehicle: carboxymethylcellulose (CMC)); 106 % of control (endpoint: mean survival time, dose: 2.0 mg/kg/injection, schedule: Q01DX009 (ip), vehicle: carboxymethylcellulose (CMC)); 104 % of control and 108 % of control (endpoint: mean survival time, dose: 2.0 mg/kg/injection, schedule: Q01DX Z (ip), vehicle: carboxymethylcellulose (CMC)); 118 % of control (endpoint: mean survival time, dose: 4.0 mg/kg/injection, schedule: Q01DX Z (ip), vehicle: carboxymethylcellulose (CMC)). In addition, the T/C is 115 % of control (endpoint: mean survival time, dose: 5.0 mg/kg/injection, schedule: Q01DX001 (ip), vehicle: carboxymethylcellulose (CMC)); 111 % of control and 120 % of control (endpoint: mean survival time, dose: 5.1 mg/kg/injection, schedule: Q01DX001 (ip), vehicle: carboxymethylcellulose (CMC)); 212 % of control (endpoint: mean survival time, dose: 8.0 mg/kg/injection, schedule: Q01DX009 (ip), vehicle: carboxymethylcellulose (CMC)); 202 % of control (endpoint: mean survival time, dose: 8.0 mg/kg/injection, schedule: Q01DX Z (ip), vehicle: carboxymethylcellulose (CMC)); 113 % of control (endpoint: mean survival time, dose: 10.0 mg/kg/injection, schedule: Q01DX001 (ip), vehicle: saline); 115 % of control (endpoint: mean survival time, dose: 10.0 mg/kg/injection, schedule: Q01DX001 (oral), vehicle: saline). For the same compound, the T/C (endpoint: mean survival time, dose: 12.0 mg/kg/injection, schedule: Q01DX Z (ip), vehicle: carboxymethylcellulose (CMC)) is 213 % of control; the T/C (endpoint: mean survival time, dose: 12.5 mg/kg/injection, schedule: Q01DX001 (ip), vehicle: carboxymethylcellulose (CMC)) was 166 % of control and 176 % of control; the T/C (endpoint: mean survival time, dose: 14.0 mg/kg/injection, schedule: Q01DX001 (ip), vehicle: carboxymethylcellulose (CMC)) is 114 % of control and 122 % of control; the T/C (endpoint: mean survival time, dose: 16.0 mg/kg/injection, schedule: Q01DX009 (ip), vehicle: carboxymethylcellulose (CMC)) is 302 % of control; the T/C (endpoint: mean survival time, dose: 16.0 mg/kg/injection, schedule: Q01DX Z (ip), vehicle: carboxymethylcellulose (CMC)) is 152 % of control and 162 % of control; the T/C (endpoint: mean survival time, dose: 20.0 mg/kg/injection, schedule: Q01DX001 (ip), vehicle: carboxymethylcellulose (CMC)) was 292 % of control. Besides, the T/C by setting is: (endpoint: mean survival time, dose: 24.25 mg/kg/injection, schedule: Q01DX001 (oral), vehicle: carboxymethylcellulose (CMC)) 266 % of control and 288 % of control and 339 % of control; (endpoint: mean survival time, dose: 25.0 mg/kg/injection, schedule: Q01DX001 (ip), vehicle: saline) 231 % of control; (endpoint: mean survival time, dose: 25.0 mg/kg/injection, schedule: Q01DX001 (oral), vehicle: saline) 243 % of control; (endpoint: mean survival time, dose: 30.0 mg/kg/injection, schedule: Q01DX001 (ip), vehicle: carboxymethylcellulose (CMC)) 240 % of control and 321 % of control; (endpoint: mean survival time, dose: 30.0 mg/kg/injection, schedule: Q01DX001 (ip), vehicle: saline) 322 % of control; (endpoint: mean survival time, dose: 31.0 mg/kg/injection, schedule: Q01DX Z (ip), vehicle: carboxymethylcellulose (CMC)) 152 % of control. For the same compound, the T/C by setting is: (endpoint: mean survival time, dose: 32.0 mg/kg/injection, schedule: Q01DX001 (ip), vehicle: carboxymethylcellulose (CMC)) 165 % of control and 246 % of control; (endpoint: mean survival time, dose: 33.0 mg/kg/injection, schedule: Q01DX001 (ip), vehicle: carboxymethylcellulose (CMC)) 459 % of control; (endpoint: mean survival time, dose: 36.0 mg/kg/injection, schedule: Q01DX001 (ip), vehicle: carboxymethylcellulose (CMC)) 277 % of control; under setting [1], 269 % of control; (endpoint: mean survival time, dose: 40.0 mg/kg/injection, schedule: Q01DX001 (ip), vehicle: saline) 240 % of control; (endpoint: mean survival time, dose: 43.0 mg/kg/injection, schedule: Q01DX001 (ip), vehicle: carboxymethylcellulose (CMC)) 481 % of control and 731 % of control. Also, the T/C was 189 % of control (endpoint: mean survival time, dose: 45.0 mg/kg/injection, schedule: Q01DX001 (ip), vehicle: carboxymethylcellulose (CMC)); 274 % of control and 306 % of control (endpoint: mean survival time, dose: 48.0 mg/kg/injection, schedule: Q01DX001 (ip), vehicle: carboxymethylcellulose (CMC)); 278 % of control and 337 % of control and 420 % of control (endpoint: mean survival time, dose: 48.5 mg/kg/injection, schedule: Q01DX001 (oral), vehicle: carboxymethylcellulose (CMC)); 218 % of control and 277 % of control (endpoint: mean survival time, dose: 50.0 mg/kg/injection, schedule: Q01DX001 (ip), vehicle: saline); 255 % of control (endpoint: mean survival time, dose: 50.0 mg/kg/injection, schedule: Q01DX001 (oral), vehicle: saline); 473 % of control (endpoint: mean survival time, dose: 55.0 mg/kg/injection, schedule: Q01DX001 (ip), vehicle: carboxymethylcellulose (CMC)). For the same compound, the T/C was 359 % of control and 414 % of control and 463 % of control under setting [2]; 227 % of control (endpoint: mean survival time, dose: 60.0 mg/kg/injection, schedule: Q01DX001 (ip), vehicle: saline); 91 % of control and 94 % of control (endpoint: mean survival time, dose: 62.0 mg/kg/injection, schedule: Q01DX Z (ip), vehicle: carboxymethylcellulose (CMC)); 267 % of control (endpoint: mean survival time, dose: 70.0 mg/kg/injection, schedule: Q01DX001 (ip), vehicle: carboxymethylcellulose (CMC)); 109 % of control (endpoint: mean survival time, dose: 70.0 mg/kg/injection, schedule: Q01DX001 (ip), vehicle: saline); 208 % of control and 284 % of control and 293 % of control (endpoint: mean survival time, dose: 72.0 mg/kg/injection, schedule: Q01DX001 (ip), vehicle: carboxymethylcellulose (CMC)). Further, the T/C (endpoint: mean survival time, dose: 75.0 mg/kg/injection, schedule: Q01DX001 (ip), vehicle: carboxymethylcellulose (CMC)) was 294 % of control; the T/C (endpoint: mean survival time, dose: 75.0 mg/kg/injection, schedule: Q01DX001 (ip), vehicle: saline) is 276 % of control; the T/C (endpoint: mean survival time, dose: 75.0 mg/kg/injection, schedule: Q01DX001 (oral), vehicle: saline) was 208 % of control; the T/C (endpoint: mean survival time, dose: 80.0 mg/kg/injection, schedule: Q01DX001 (ip), vehicle: carboxymethylcellulose (CMC)) was 184 % of control; the T/C (endpoint: mean survival time, dose: 86.0 mg/kg/injection, schedule: Q01DX001 (ip), vehicle: carboxymethylcellulose (CMC)) was 184 % of control and 211 % of control; the T/C (endpoint: mean survival time, dose: 97.0 mg/kg/injection, schedule: Q01DX001 (oral), vehicle: carboxymethylcellulose (CMC)) was 120 % of control and 122 % of control. Further, the T/C runs as follows: (endpoint: mean survival time, dose: 100.0 mg/kg/injection, schedule: Q01DX001 (ip), vehicle: carboxymethylcellulose (CMC)) 103 % of control; (endpoint: mean survival time, dose: 100.0 mg/kg/injection, schedule: Q01DX001 (ip), vehicle: saline) 89 % of control; (endpoint: mean survival time, dose: 100.0 mg/kg/injection, schedule: Q01DX001 (oral), vehicle: saline) 102 % of control.

In the case of `NC(Cc1ccc(N(CCCl)CCCl)cc1)C(=O)O` (stereo not drawn), the T/C was 119 % of control (endpoint: mean survival time, dose: 8.0 mg/kg/injection, schedule: Q01DX001 (ip), vehicle: carboxymethylcellulose (CMC)) and 117 % of control (endpoint: mean survival time, dose: 12.0 mg/kg/injection, schedule: Q01DX001 (ip), vehicle: carboxymethylcellulose (CMC)).

`CN1CCN(CCCN2c3ccccc3Sc3ccc(Cl)cc32)CC1`: the T/C (endpoint: mean survival time, dose: 16.6 mg/kg/injection, schedule: Q01DX009 (ip), vehicle: saline) was 108 % of control and the T/C (endpoint: mean survival time, dose: 25.0 mg/kg/injection, schedule: Q01DX009 (ip), vehicle: saline) is 103 % of control.

Regarding `O=C1C=CN(C2OC(CO)C(O)C2O)C(=O)C1` (stereo not drawn), the T/C (endpoint: median survival time, dose: 200.0 mg/kg/injection, schedule: Q01DX009 (ip), vehicle: saline) is 150 % of control.

For `CN(N=O)C(=O)Nc1ccc(C(=O)O)cc1`, the T/C under setting [2] was 110 % of control and the T/C (endpoint: mean survival time, dose: 120.0 mg/kg/injection, schedule: Q01DX001 (ip), vehicle: carboxymethylcellulose (CMC)) was 114 % of control.

`COCCOCCN1CCN(CCCN2c3ccccc3Sc3ccc(C(F)(F)F)cc32)CC1`: the T/C is 100 % of control (endpoint: mean survival time, dose: 25.0 mg/kg/injection, schedule: Q04DX003 (ip), vehicle: saline); 108 % of control (endpoint: mean survival time, dose: 35.0 mg/kg/injection, schedule: Q04DX003 (ip), vehicle: saline); 93 % of control (endpoint: mean survival time, dose: 50.0 mg/kg/injection, schedule: Q04DX003 (ip), vehicle: saline).

In the case of `O=NN(CCCl)C(=O)Nc1ccc(F)cc1`, the T/C was 109 % of control (endpoint: mean survival time, dose: 11.0 mg/kg/injection, schedule: Q01DX001 (ip), vehicle: carboxymethylcellulose (CMC)); 112 % of control (endpoint: mean survival time, dose: 16.6 mg/kg/injection, schedule: Q01DX001 (ip), vehicle: carboxymethylcellulose (CMC)); 109 % of control (endpoint: mean survival time, dose: 25.0 mg/kg/injection, schedule: Q01DX001 (ip), vehicle: carboxymethylcellulose (CMC)); 108 % of control under setting [1].

In the case of `CCCC(=O)NC1=C(N2CC2)C(=O)C(NC(=O)CCC)=C(N2CC2)C1=O`, the T/C (endpoint: mean survival time, dose: 1.0 mg/kg/injection, schedule: Q01DX009 (ip), vehicle: saline) was 105 % of control; the T/C (endpoint: mean survival time, dose: 4.0 mg/kg/injection, schedule: Q01DX009 (ip), vehicle: saline) was 152 % of control; the T/C (endpoint: mean survival time, dose: 8.0 mg/kg/injection, schedule: Q01DX009 (ip), vehicle: saline) is 89 % of control.
